# Laboratory results as given in US20240277693A1, “A PHARMACEUTICAL PRODUCT CONTAINING TASQUINIMOD AND A METHOD FOR ASSESSING THE PURITY OF SAID PRODUCT” (ACTIVE BIOTECH AB, priority 2021, published 2024).
# Columns and labels:
# [1] = Stability testing of capsules at 25° C./60% RH in water impermeable blister pack; type: physicochemical
# Description: In some embodiments, the method disclosed herein comprises storing (keeping) a sample of the pharmaceutical product for a period of time, preferably under selected conditions of temperature and humidity. The amount (or concentration) of tasquinimod and of at least one of compounds I, II, III and IV in the sample may preferably be determined at the beginning or before the storage period and at the end of the storage period. The selected storage conditions may include a temperature in the range of, for example, 20° C. to 40° C., and a relative humidity in the surrounding atmosphere in the range of, for example, 30% to 75%; e.g. 25° C. and 60% RH, or 30° C. and 65% RH, or 35° C. and 70% RH, or 40° C. and 75% RH. The storage period may extend over a time period in the range of, for example, several weeks to several years. For example, the stability testing period (“storage period”) may be 2 weeks, 3 weeks, 1 month, 2 months, 3 months, 4 months, 5 months, 6 months, 9 months, 1 year, 18 months, 2 years, 3 years, 4 years or even 5 years or longer. A shorter storage period may be selected by use of higher storage temperature and/or higher relative humidity (RH). The total amount of a tasquinimod decomposition product in the sample at the end of the storage period may be determined by, for example, HPLC.
# The batch of capsules manufactured in Example 19 was assessed by determining the amount of tasquinimod and the amount of each one of compounds I, II, III and IV in a sample of the capsules at the end of a 3-month stability testing, whereby the criterion for approving the batch was that the capsules of the sample, at the end of the 3-month stability testing, contain a total amount of compounds I-IV of not more than 5.0% w/w, relative to the amount of tasquinimod in the capsules. The stability testing consisted of keeping the capsules, in a water impermeable blister pack, at 25° C./60% RH. At the end of the stability testing, the capsules contained 0.06% w/w of compound I, less than 0.05% w/w of compound II, 0.10% of compound III and less than 0.05% w/w of compound IV, relative to the amount of tasquinimod (determined to be 0.246 mg/capsule), viz. in total less than 0.26% w/w of compounds I-IV relative to the amount of tasquinimod. Therefore, according to the selected criterion for approval, the batch of capsules was determined to be suitable for distribution.
# The obtained batch of capsules was subjected to multiple assessments, viz. a first assessment comprising determining the amount of tasquinimod and the amount of compounds I, II, III and IV in a sample of the capsules directly after manufacturing, whereby the selected criterion for approving the batch for distribution was that the capsules of the sample, in a water impermeable blister pack, contain not more than in total 5% w/w of compounds I-IV relative to the amount of tasquinimod, followed by eight further, independent assessments, by determining the amount of tasquinimod and the amount of each one of compounds I, II, III and IV in a sample of the capsules at the end of a period of stability testing (by keeping the capsules, in a water impermeable blister pack, at 25° C./60% RH) of 3, 6, 9, 12, 18, 24, 36 and 48 months, respectively, whereby each time the criterion for approving the batch was that the capsules of the sample, at the end of each period of stability testing, contain a total amount of compounds I-IV of not more than 5.0% w/w, relative to the amount of tasquinimod in the capsules.
# [2] = Drug product stability studies (general observations); type: physicochemical
# Description: In a drug product, compound I is formed with compound II from hydrolysis of tasquinimod. […] Compound II is further decarboxylated to form compound III.
# Compound III is the decarboxylated species formed from the degradation of compound II.
# The mechanism for formation of compound IV in a drug product is unknown.
# [3] = 0.25 mg capsules of Example 19, 3 months
# [4] = 0.25 mg capsules of Example 19, 6 months
# [5] = 0.25 mg capsules of Example 19, 9 months
# [6] = 0.25 mg capsules of Example 19, 12 months
# [7] = 0.25 mg capsules of Example 19, 18 months
# [8] = 0.25 mg capsules of Example 19, 24 months
# [9] = 0.25 mg capsules of Example 19, 36 months
# [10] = 0.25 mg capsules of Example 19, 48 months
# [11] = 0.5 mg capsules of Example 28, 3 months
# [12] = 0.5 mg capsules of Example 28, 6 months
# [13] = 0.5 mg capsules of Example 28, 9 months
# [14] = 0.5 mg capsules of Example 28, 12 months
# [15] = 0.5 mg capsules of Example 28, 18 months
# [16] = 0.5 mg capsules of Example 28, 24 months
# [17] = 0.5 mg capsules of Example 28, 36 months
# [18] = 0.5 mg capsules of Example 28, 48 months
# [19] = 1.0 mg capsules of Example 29, 3 months
# [20] = 1.0 mg capsules of Example 29, 6 months
# [21] = 1.0 mg capsules of Example 29, 9 months
# [22] = 1.0 mg capsules of Example 29, 12 months
# [23] = 1.0 mg capsules of Example 29, 18 months
# [24] = 1.0 mg capsules of Example 29, 24 months
# [25] = 1.0 mg capsules of Example 29, 36 months
# [26] = 1.0 mg capsules of Example 29, 48 months
structure (smiles),measurement,setting,value
"COc1cccc2c1c(O)cc(=O)n2C [Compound III, 4-hydroxy-5-methoxy-1-methylquinolin-2(1H)-one]","amount of decomposition product (each of compounds I-IV) in capsules, relative to the amount of tasquinimod",[1]; [3],0.10 % w/w
same,"amount of decomposition product (each of compounds I-IV) in capsules, relative to the amount of tasquinimod",[1]; [4],0.16 % w/w
same,"amount of decomposition product (each of compounds I-IV) in capsules, relative to the amount of tasquinimod",[1]; [5],0.21 % w/w
same,"amount of decomposition product (each of compounds I-IV) in capsules, relative to the amount of tasquinimod",[1]; [6],0.26 % w/w
same,"amount of decomposition product (each of compounds I-IV) in capsules, relative to the amount of tasquinimod",[1]; [7],0.35 % w/w
same,"amount of decomposition product (each of compounds I-IV) in capsules, relative to the amount of tasquinimod",[1]; [8],0.41 % w/w
same,"amount of decomposition product (each of compounds I-IV) in capsules, relative to the amount of tasquinimod",[1]; [9],0.57 % w/w
same,"amount of decomposition product (each of compounds I-IV) in capsules, relative to the amount of tasquinimod",[1]; [10],0.79 % w/w
same,"Decomposition products (% w/w), relative to the amount of tasquinimod in capsule",[1]; [11],0.05 % w/w
same,"Decomposition products (% w/w), relative to the amount of tasquinimod in capsule",[1]; [12],0.09 % w/w
same,"Decomposition products (% w/w), relative to the amount of tasquinimod in capsule",[1]; [13],0.11 % w/w
same,"Decomposition products (% w/w), relative to the amount of tasquinimod in capsule",[1]; [14],0.13 % w/w
same,"Decomposition products (% w/w), relative to the amount of tasquinimod in capsule",[1]; [15],0.16 % w/w
same,"Decomposition products (% w/w), relative to the amount of tasquinimod in capsule",[1]; [16],0.19 % w/w
same,"Decomposition products (% w/w), relative to the amount of tasquinimod in capsule",[1]; [17],0.27 % w/w
same,"Decomposition products (% w/w), relative to the amount of tasquinimod in capsule",[1]; [18],0.36 % w/w
same,"Decomposition products (% w/w), relative to the amount of tasquinimod in capsule",[1]; [19],<0.05 % w/w
same,"Decomposition products (% w/w), relative to the amount of tasquinimod in capsule",[1]; [20],<0.05 % w/w
same,"Decomposition products (% w/w), relative to the amount of tasquinimod in capsule",[1]; [21],<0.05 % w/w
same,"Decomposition products (% w/w), relative to the amount of tasquinimod in capsule",[1]; [22],0.06 % w/w
same,"Decomposition products (% w/w), relative to the amount of tasquinimod in capsule",[1]; [23],0.09 % w/w
same,"Decomposition products (% w/w), relative to the amount of tasquinimod in capsule",[1]; [24],0.10 % w/w
same,"Decomposition products (% w/w), relative to the amount of tasquinimod in capsule",[1]; [25],0.15 % w/w
same,"Decomposition products (% w/w), relative to the amount of tasquinimod in capsule",[1]; [26],0.18 % w/w
same,change of the amount of the compound in tasquinimod drug product on storage,[2],increase under any conditions
"COc1cccc2c1c(O)c(C(=O)N(C)c1ccc(C(F)(F)F)cc1)c(=O)n2C [Tasquinimod, 4-hydroxy-5-methoxy-N, 1-dimethyl-2-oxo-N-[4-(trifluoromethyl)phenyl]-1,2-dihydroquinoline-3-carboxamide]",amount of tasquinimod in capsules,[1]; [3],0.246 mg/capsule
same,amount of tasquinimod in capsules,[1]; [4],0.243 mg/capsule
same,amount of tasquinimod in capsules,[1]; [5],0.243 mg/capsule
same,amount of tasquinimod in capsules,[1]; [6],0.245 mg/capsule
same,amount of tasquinimod in capsules,[1]; [7],0.245 mg/capsule
same,amount of tasquinimod in capsules,[1]; [8],0.237 mg/capsule
same,amount of tasquinimod in capsules,[1]; [9],0.237 mg/capsule
same,amount of tasquinimod in capsules,[1]; [10],0.238 mg/capsule
same,Tasquinimod (mg/capsule),[1]; [11],0.501 mg/capsule
same,Tasquinimod (mg/capsule),[1]; [12],0.497 mg/capsule
same,Tasquinimod (mg/capsule),[1]; [13],0.504 mg/capsule
same,Tasquinimod (mg/capsule),[1]; [14],0.500 mg/capsule
same,Tasquinimod (mg/capsule),[1]; [15],0.501 mg/capsule
same,Tasquinimod (mg/capsule),[1]; [16],0.486 mg/capsule
same,Tasquinimod (mg/capsule),[1]; [17],0.490 mg/capsule
same,Tasquinimod (mg/capsule),[1]; [18],0.494 mg/capsule
same,Tasquinimod (mg/capsule),[1]; [19],0.989 mg/capsule
same,Tasquinimod (mg/capsule),[1]; [20],0.988 mg/capsule
same,Tasquinimod (mg/capsule),[1]; [21],1.007 mg/capsule
same,Tasquinimod (mg/capsule),[1]; [22],0.992 mg/capsule
same,Tasquinimod (mg/capsule),[1]; [23],0.982 mg/capsule
same,Tasquinimod (mg/capsule),[1]; [24],0.997 mg/capsule
same,Tasquinimod (mg/capsule),[1]; [25],1.000 mg/capsule
same,Tasquinimod (mg/capsule),[1]; [26],0.987 mg/capsule
